This data set can be described thus: Maximum amount of methylphenidate dissolved in various adhesives. Type of data set: physicochemical. As to the method:
Various adhesives were tested to determine the maximum amount of methylphenidate could be dissolved.

SMILES strings stand for the structures.

Consider `COC(=O)C(c1ccccc1)C1CCCCN1` (stereo not shown) [methylphenidate, a-phenyl-2-piperidineacetic acid methyl ester], for which the “solubility in Duro Tak 87-6911” value is reported as “highly soluble”.

(Values after US10420733B2, “Transdermal delivery system containing methylphenidate or its salts and methods thereof” (TAHO Pharmaceuticals Ltd., priority 2016, dated 2019).)
